Legend:
[1] = tested on: pS6RP(S235/236), PC3 cells; test: In-cell Western assay, pS6RP(S235/236) in PC3 cells; format: cell-based, human
Method in brief: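 Overnight-seeded PC3 cells were treated 2 h with serially diluted compound, then fixed and immunostained with phospho-specific primary antibodies and Eu-labelled secondary. Time-resolved Eu signal read at 615 nm (ex 340 nm), normalised by Hoechst 33258 staining (ex 355/em 460 nm); IC50 from sigmoidal dose-response fit.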

PI3Kα mutation H1047R = PI3Kα mutation H1047R (Homo sapiens, UniProt P42336, H1047R); test: PI3 Kinase TR-FRET assay, PI3Kα mutation H1047R; format: biochemical; conditions: read-out: inhibition of PI3Kα mutation H1047R, IC50
Description: (§1) The ability of compounds of the invention to inhibit PI3K activity was determined in a homogeneous TR-FRET assay using a PI3K assay kit (Millipore, USA; cat #33-016) according to manufacturer's instructions. PI3-Kinases (isoforms α, β, γ and δ) catalyze the phosphorylation of phosphatidylinositol, PIP2 to PIP3 in the presence of ATP and Mg^2+. The PIP3 product is detected by displacement of biotin-PIP3 from an energy transfer complex consisting of Europium labeled anti-GST monoclonal antibody, a GST-tagged PH domain, biotinylated PIP3 and Streptavidin-APC. Excitation of Europium in the complex results in an energy transfer to the APC and a fluorescence emission at 665 nm. The PIP3 product displaces biotin-PIP3 from the complex resulting in a loss of energy transfer and thus a decrease in signal.
(§2) To test for the ability of compounds to inhibit the activity of PI3Kα (wild-type), exemplary compounds of formula (I) were dissolved in DMSO and directly distributed into 384-well plates at a volume of 0.5 μL. 14.5 μL of P110/P85α/PIP2 mixture in buffer (obtained from the Millipore kit) containing MgCl2 (40 mM) and DTT (5 mM) was added to compound wells and incubated for 60 min at room temperature. P110/P85α was expressed in SF9 insect cells and purified nickel column extraction. Five ng of wild-type P110/P85α was used in the assay. The kinase reaction was started by the addition of ATP. The assay concentrations of both PIP2 and ATP were 10 μM. The reaction mixture was incubated for 30 min at room temperature and was terminated by the addition of stop mix and detection mix. Fluorescence was measured at 615 and 665 nm upon excitation at 340 nm in a Victor™ V5 fluorometer (Perkin Elmer, USA). The fluorescence emission ratio at 665 to 615 nm, proportional to the kinase activity, was plotted against the compound concentration to generate dose-response curves and IC50 values were determined using GraphPad Prism® 5 software.
(§3) The activity of PI3Kα mutations H1047R and E545K were assayed in a similar manner to the assay protocol described above for PI3Kα (wild type). […]

PI3Kα mutation E545K = PI3Kα mutation E545K (Homo sapiens, UniProt P42336, E545K); test: PI3 Kinase TR-FRET assay, PI3Kα mutation E545K; format: biochemical; conditions: read-out: inhibition of PI3Kα mutation E545K, IC50
Description: as §1, §2, §3

[2] = Homo sapiens, PC-3, In-cell Western

PI3Kα mutation H1047R, sequence (P42336 whole entry H1047R, the tested form may be a part, canonical isoform): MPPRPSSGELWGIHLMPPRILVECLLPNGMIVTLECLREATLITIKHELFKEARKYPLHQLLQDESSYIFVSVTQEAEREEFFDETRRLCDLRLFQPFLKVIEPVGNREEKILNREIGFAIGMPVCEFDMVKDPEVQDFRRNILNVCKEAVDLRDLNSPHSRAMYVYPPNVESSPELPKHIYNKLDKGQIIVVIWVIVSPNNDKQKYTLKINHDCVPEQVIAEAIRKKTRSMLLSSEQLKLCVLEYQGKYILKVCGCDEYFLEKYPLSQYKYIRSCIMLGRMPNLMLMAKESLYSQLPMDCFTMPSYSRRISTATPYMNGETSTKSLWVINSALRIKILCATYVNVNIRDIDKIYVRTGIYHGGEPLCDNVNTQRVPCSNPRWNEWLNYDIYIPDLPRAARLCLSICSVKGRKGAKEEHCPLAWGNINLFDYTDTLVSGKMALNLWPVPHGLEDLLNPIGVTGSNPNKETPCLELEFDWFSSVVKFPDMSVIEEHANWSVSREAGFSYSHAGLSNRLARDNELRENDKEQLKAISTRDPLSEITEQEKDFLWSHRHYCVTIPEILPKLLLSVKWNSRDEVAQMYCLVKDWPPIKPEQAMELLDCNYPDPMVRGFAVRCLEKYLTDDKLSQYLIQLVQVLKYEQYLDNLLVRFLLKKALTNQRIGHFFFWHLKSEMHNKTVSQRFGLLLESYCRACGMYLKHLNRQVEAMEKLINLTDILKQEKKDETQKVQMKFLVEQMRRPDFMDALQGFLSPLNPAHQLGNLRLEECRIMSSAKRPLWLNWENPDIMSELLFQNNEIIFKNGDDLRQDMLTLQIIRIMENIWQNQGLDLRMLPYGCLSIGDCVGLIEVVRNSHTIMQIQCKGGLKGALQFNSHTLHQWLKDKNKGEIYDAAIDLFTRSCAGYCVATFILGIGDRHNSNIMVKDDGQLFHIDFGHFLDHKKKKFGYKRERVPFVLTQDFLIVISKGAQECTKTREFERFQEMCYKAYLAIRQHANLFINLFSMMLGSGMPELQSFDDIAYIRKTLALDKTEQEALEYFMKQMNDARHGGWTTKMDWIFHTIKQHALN
PI3Kα mutation H1047R, sequence (P27986 whole entry partner, the tested form may be a part, canonical isoform): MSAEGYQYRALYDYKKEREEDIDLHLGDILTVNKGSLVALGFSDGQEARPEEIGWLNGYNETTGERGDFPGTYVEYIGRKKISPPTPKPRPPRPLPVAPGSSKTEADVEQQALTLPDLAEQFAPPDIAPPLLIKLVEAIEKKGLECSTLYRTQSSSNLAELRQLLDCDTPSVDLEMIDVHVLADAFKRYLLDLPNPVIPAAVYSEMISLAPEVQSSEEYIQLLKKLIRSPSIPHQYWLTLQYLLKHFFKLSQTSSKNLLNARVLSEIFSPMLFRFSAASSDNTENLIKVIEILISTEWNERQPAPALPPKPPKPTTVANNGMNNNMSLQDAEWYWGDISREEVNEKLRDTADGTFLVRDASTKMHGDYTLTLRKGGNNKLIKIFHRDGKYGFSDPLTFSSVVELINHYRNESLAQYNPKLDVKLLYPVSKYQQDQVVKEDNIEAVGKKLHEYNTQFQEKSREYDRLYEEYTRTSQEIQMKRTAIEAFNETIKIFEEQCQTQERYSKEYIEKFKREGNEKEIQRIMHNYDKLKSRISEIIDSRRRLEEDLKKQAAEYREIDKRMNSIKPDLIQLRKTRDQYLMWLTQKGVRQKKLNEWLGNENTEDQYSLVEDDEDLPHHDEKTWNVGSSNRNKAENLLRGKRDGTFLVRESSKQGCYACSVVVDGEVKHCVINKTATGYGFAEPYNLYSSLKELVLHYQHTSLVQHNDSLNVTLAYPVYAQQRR
PI3Kα mutation E545K, sequence (P42336 whole entry E545K): as the sequence (P42336 whole entry H1047R, the tested form may be a part, canonical isoform) above, with E545K, R1047H counted along it
PI3Kα mutation E545K, sequence (P27986 whole entry partner): as the sequence (P27986 whole entry partner, the tested form may be a part, canonical isoform) above

IC50 [1, 2]	IC50 ([1]; In-cell Western)	IC50 (PI3Kα mutation H1047R)	IC50 (PI3Kα mutation E545K)	SMILES
–	–	< 500 nM	< 500 nM	CN(C)C(=O)c1ccc(NC(=O)Nc2ccc(-c3nc(N4CCOCC4)c4ccc(-c5cccnc5F)cc4n3)cc2)c(F)c1 [Example 146, 3-fluoro-4-(3-(4-(7-(2-fluoropyridin-3-yl)-4-morpholino-quinazolin-2-yl)phenyl)ureido)-N,N-dimethyl-benzamide]
–	–	< 500 nM	< 500 nM	CN(C)C(=O)c1ccc(NC(=O)Nc2ccc(-c3nc(N4CCOCC4)c4ccc(-c5cccnc5)cc4n3)cc2)c(F)c1 [Example 152, 3-fluoro-N,N-dimethyl-4-(3-(4-(4-morpholino-7-(pyridin-3-yl)quinazolin-2-yl)phenyl)ureido)-benzamide]

More lines, now with the values behind:

SMILES	IC50 [1, 2]	IC50 ([1]; In-cell Western)	IC50 (PI3Kα mutation H1047R)	IC50 (PI3Kα mutation E545K)
CN(C)C(=O)c1ccc(NC(=O)Nc2ccc(-c3nc(N4CCOCC4)c4ccc(-c5cncnc5)cc4n3)cc2)cc1 [Example 1, N,N-Dimethyl-4-(3-{4-[4-morpholin-4-yl-7-pyrimidin-5-yl-quinazolin-2-yl)-phenyl]-ureido}-benzamide]	< 100 nM	–	–	–
Cc1ccc(-c2ccc3c(N4CCOCC4)nc(-c4ccc(NC(=O)Nc5ccc(C(=O)N(C)C)cc5)cc4)nc3c2)o1 [Example 2, N,N-Dimethyl-4-(3-{4-[7-(5-methyl-furan-2-yl)-4-morpholin-4-yl-quinazolin-2-yl]-phenyl}-ureido)-benzamide]	100 to 500 nM	–	–	–
CN(C)C(=O)c1ccc(NC(=O)Nc2ccc(-c3nc(N4CCOCC4)c4ccc(-c5ccco5)cc4n3)cc2)cc1 [Example 51, 4-{3-[4-(7-furan-2-yl-4-morpholin-4-yl-quinazolin-2-yl)-phenyl]-ureido}-N,N-dimethyl-benzamide]	–	501 to 5000 nM	–	–
CN(C)C(=O)c1ccc(NC(=O)Nc2ccc(-c3nc(N4CCOCC4)c4ccc(-c5cncnc5)cc4n3)cc2)c(F)c1 [Example 133, 3-fluoro-N,N-dimethyl-4-(3-(4-(4-morpholino-7-(pyrimidin-5-yl)quinazolin-2-yl)phenyl)ureido)-benzamide]	201 to 10000 nM	–	< 500 nM	< 500 nM
